Experimental data published in US8470765B2, “Polypeptides and antibacterial or antiseptic use of same” (AnGes MG, Inc., priority 2009, dated 2013).
In brackets after ≈: the same amount, converted by molar mass. Read-outs that look alike come from different tables or passages of the source. No end group written: not given here.

Key:
[1] = system: Escherichia coli ATCC 25922; assay: microbe, parasite or virus in culture; assay type: cell-based; settings: for MIC: Escherichia coli, ATCC25922, read-out: MIC Escherichia coli
In short: (§1)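 Broth microdilution in Mueller-Hinton broth with about 10^5 CFU/mL final inoculum, prepared from log-phase cultures adjusted to McFarland 0.5. Peptides were diluted in MHB from 128 μg/mL and incubated with cells at 37° C for 16 to 24 hours. MIC was the lowest concentration with no visible growth.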

[2] = system: Klebsiella pneumoniae JCM 1662; assay: microbe, parasite or virus in culture; assay type: cell-based; settings: for MIC: Klebsiella pneumoniae, JCM1662
In short: as §1

[3] = system: Pseudomonas aeruginosa 12 (clinical strain); assay: microbe, parasite or virus in culture; settings: for MIC: Pseudomonas aeruginosa, read-out: MIC Pseudomonas aeruginosa 12
Method: (§2) Bacteria (Escherichia coli ATCC 25922, Pseudomonas aeruginosa ATCC 27853, Staphylococcus aureus ATCC29213, Klebsiella pneumoniae JCM 1662, Enterobacter cloacae JCM 1232, Enterobacter aerogenes JCM 1235 and Staphylococcus epidermidis JCM 2414) were inoculated to Mueller-Hinton broth: MHB or LB medium, and cultured at a temperature and period suited for each strain. From the thus obtained colonies, each strain was inoculated to a fresh liquid medium and cultured for 16 to 20 hours. Then an aliquot having a volume (10 to 50 appropriate to each strain was inoculated to a fresh liquid medium and cultured for 4 to 6 hours, followed by the measurement of the absorbance at 600 nm. After comparing the turbidity with McFarland #0.5, the resultant was diluted with a medium. Each strain was added to about 10^5 CFU/mL (final concentration).
(§3) Further, the antibacterial activities against the clinical strains collected and isolated from infected patients were also examined. The tests were carried out for two methicillin-resistant Staphylococcus (MRSA) (MRSA (i) and (ii)), two methicillin-sensitive Staphylococcus (MSSA) (MSSA (i) and (ii)), five Pseudomonas aeruginosa, Pseudomonas aeruginosa 1, Pseudomonas aeruginosa 6, Pseudomonas aeruginosa 8. Pseudomonas aeruginosa 9 and Pseudomonas aeruginosa 12, totally 9 clinical strains. The MRSA and MSSA clinical strains were tested by the same method as Staphylococcus aureus ATCC29213, and Pseudomonas clinical strains were tested by the same method as Pseudomonas aeruginosa ATCC 27853.
(§4) Each of the peptide solutions to be tested was diluted with MHB to obtain a solution of 128 μg/mL. This solution was serially diluted with the medium to prepare peptide-containing media having concentrations of 128, 64, 32, 16, 8.0, 4.0 and 2.0 μg/mL respectively. […] By dilution with sterilized purified water to 1.0 mg/mL, positive control-containing media having concentrations of 16, 8, 4, 2, 1.0, 0.25, 0.12 and 0.06 μg/mL, respectively for TOB; 0.5, 0.12 and 0.06 μg/mL, respectively, for OX; and 16, 8, 4, 2, 1.0, 0.25, 0.12, 0.06, 0.06, 0.03 and 0.008 μg/mL, respectively, for MEPM, were prepared.
(§5) To a 96-well microtiter plate, 0.1 mL of the inoculation solution and 0.1 mL of the peptide- or positive control-containing medium having the respective concentration were added, and cultured at 37° C. for 16 to 24 hours (or a time period suited for the growth of the respective strain). The well not containing the sample was used as a negative control. After the culturing, the growth was visually observed, and the minimum concentration at which the growth was inhibited was defined as the minimum growth inhibition concentration (MIC).
(§6) The medium used in this test for bacteria was Mueller-Hinton broth. Independent experiments were carried out twice or more for each strain.

[4] = system: Pseudomonas aeruginosa 9 (clinical strain); assay: microbe, parasite or virus in culture; settings: for MIC: Pseudomonas aeruginosa, read-out: MIC Pseudomonas aeruginosa 9
Method: as §2, §3, §4, §5, §6

[5] = system: Pseudomonas aeruginosa 1 (clinical strain); assay: microbe, parasite or virus in culture; settings: for MIC: Pseudomonas aeruginosa, read-out: MIC Pseudomonas aeruginosa 1
Method: as §2, §3, §4, §5, §6

[6] = system: Pseudomonas aeruginosa 6 (clinical strain); assay: microbe, parasite or virus in culture; settings: for MIC: Pseudomonas aeruginosa, read-out: MIC Pseudomonas aeruginosa 6
Method: as §2, §3, §4, §5, §6

[7] = system: methicillin-sensitive Staphylococcus (MSSA) MSSA(ii); assay: organism not typed; settings: for MIC: read-out: MIC MSSA(ii)
Method: as §2, §3, §4, §5, §6

[8] = system: methicillin-resistant Staphylococcus (MRSA) MRSA(i); assay: organism not typed; settings: for MIC: read-out: MIC MRSA(i)
Method: as §2, §3, §4, §5, §6

[9] = system: methicillin-resistant Staphylococcus (MRSA) MRSA(ii); assay: organism not typed; settings: for MIC: read-out: MIC MRSA(ii)
Method: as §2, §3, §4, §5, §6

[10] = system: Bacteroides fragilis JCM 11019; settings: JCM 11019
[11] = system: Salmonella typhimurium JCM1652
[12] = system: Micrococcus luteus NBRC13867
[13] = system: Trichophyton mentagrophytes NBRC6124; settings: NBRC6124
[14] = system: Fusobacterium nucleatum JCM 11025; settings: JCM 11025
[15] = system: Pseudomonas aeruginosa 8 (clinical strain)
Method: as §2, §3, §4, §5, §6

[16] = system: methicillin-sensitive Staphylococcus (MSSA) MSSA(i); assay: organism not typed; settings: Table 4; clinical strain; first/second value where not identical
Method: as §2, §3, §4, §5, §6

[17] = Table 4, two tests, first/second value where not identical
[18] = Table 4, clinical strain, first/second value where not identical
[19] = methicillin-sensitive Staphylococcus (ii)
[20] = methicillin-resistant Staphylococcus (i)
[21] = methicillin-resistant Staphylococcus (ii)

| Compound | MIC Escherichia coli ([1]; ATCC 25922) | MIC Klebsiella pneumoniae ([2]; JCM 1662) | MIC Pseudomonas aeruginosa 12 [3, 18] | MIC Pseudomonas aeruginosa 9 [4, 18] | MIC Bacteroides fragilis [10] | MIC Micrococcus luteus [12] | MIC Trichophyton mentagrophytes [13] | MIC Fusobacterium nucleatum [14] | MIC Pseudomonas aeruginosa 8 ([15]; 8 (clinical strain)) | MIC MSSA(ii) [7, 19] | MIC MRSA(i) [8, 20] | MIC MSSA(i) [16] | MIC MRSA(ii) [9, 18] | MIC Pseudomonas aeruginosa 1 [5, 18] | MIC Pseudomonas aeruginosa 6 [6, 18] | MIC Salmonella Typhimurium ([11]; JCM1652) | MIC Escherichia coli [1, 17] | also measured |
| --- | --- | --- | --- | --- | --- | --- | --- | --- | --- | --- | --- | --- | --- | --- | --- | --- | --- | --- |
| NC[C@H]1O[C@H](O[C@H]2[C@H](O)[C@@H](O[C@H]3O[C@H](CO)[C@@H](O)[C@H](N)[C@H]3O)[C@H](N)C[C@@H]2N)[C@H](N)C[C@@H]1O [tobramycin, reference compound] |  |  |  |  |  |  |  |  |  |  |  |  |  |  |  |  |  | MIC [1, 17]: 0.25 to 1 mg/L (≈ 0.000535 to 0.00214 mM); MIC [2, 17]: < 4000 mg/L; MIC [3]: < 4000 mg/L; MIC [4]: < 4000 mg/L; MIC [5]: > 16000 mg/L; MIC [6]: < 4000 mg/L; MIC [7]: 4 mg/L (≈ 0.00856 mM); MIC [8]: > 16000 mg/L; MIC [9]: > 16000 mg/L |
| C[C@@H](O)[C@H]1C(=O)N2C(C(=O)O)=C(S[C@@H]3CN[C@H](C(=O)N(C)C)C3)[C@H](C)[C@H]12 [meropenem, reference compound] |  |  |  |  |  |  |  |  |  |  |  |  |  |  |  |  |  | MIC [1, 17]: 0.008 to 0.06 mg/L (≈ 2.09e-05 to 0.000156 mM); MIC [2, 17]: < 4000 mg/L; MIC [3]: < 4000 mg/L; MIC [4]: < 4000 mg/L; MIC [5]: < 4000 mg/L; MIC [6]: 8 to 16 mg/L (≈ 0.0209 to 0.0417 mM); MIC [7]: 4 to 8 mg/L (≈ 0.0104 to 0.0209 mM); MIC [8]: < 4000 mg/L; MIC [9]: 8 to 16 mg/L (≈ 0.0209 to 0.0417 mM) |
| GRLKRMGERLKRKIQKWIRW-NH2 [SRP-15] | 16 mg/L | 16 mg/L | 8/16 | 8/64 | 16 mg/L | 4 mg/L | 32 mg/L | 4 mg/L | 16 mg/L | 16 mg/L | 16 mg/L | 16/32 | 16/32 |  |  |  |  | MIC Pseudomonas aeruginosa 1 ([5]; 1 (clinical strain)): 16 mg/L; MIC Pseudomonas aeruginosa 6 ([6]; 6 (clinical strain)): 16 mg/L; MIC Salmonella Typhimurium [11, 17]: 8/4 |
| IFLHRLKRMRKRLKRKLRLW-OH [SRP-7] | 32 mg/L |  |  | 64/128 | 128 mg/L | 2 mg/L | 32 mg/L | 4 mg/L | 32 mg/L |  |  |  |  | 32/64 | 16/64 | 4 mg/L |  | MIC Klebsiella pneumoniae [2, 17]: 16/64; MIC Pseudomonas aeruginosa 12 ([3]; 12 (clinical strain)): 16 mg/L |
| GRLKRMGKRLKRKIQKWARW-NH2 [SRP-14] | 16 mg/L |  | 8/16 | 16/32 | 128 mg/L | 4 mg/L | 16 mg/L | 4 mg/L | 16 mg/L |  |  | 16/32 | 16/32 |  | 8/16 |  |  | MIC Klebsiella pneumoniae [2, 17]: 16/128; MIC Pseudomonas aeruginosa 1 ([5]; 1 (clinical strain)): 16 mg/L; MIC Salmonella Typhimurium [11, 17]: 4/8; MIC MSSA(ii) [7, 18]: 16/32; MIC MRSA(i) [8, 18]: 16/32 |
| RLKRMRKRLKRKLRLWHRKRYK-NH2 [SRP-8] |  | 32 mg/L | 16/32 | 16/64 | > 128 mg/L | 2 mg/L | 32 mg/L | > 128 mg/L | 16 mg/L | 32 mg/L | 64 mg/L | 32/64 |  | 16/32 |  | 64 mg/L | 16/32 | MIC Pseudomonas aeruginosa 6 ([6]; 6 (clinical strain)): 16 mg/L; MIC MRSA(ii) [9, 21]: 64 mg/L |
| LIFLHRLKRMRKRLKRKLRL-NH2 [SRP-12] | 32 mg/L | 128 mg/L |  | 16/64 |  |  |  |  |  | 16 mg/L | 32 mg/L | 16 mg/L | 32/64 | 16/32 | 32/64 |  |  | MIC Pseudomonas aeruginosa 12 ([3]; 12 (clinical strain)): 16 mg/L; MIC Pseudomonas aeruginosa 8 [15, 18]: 32/64 |
| KLIFLHRLKRELRKRLKRKLR-NH2 [SRP-13] |  | 32 mg/L | 8/16 |  | 64 mg/L | 2 mg/L | 32 mg/L | 4 mg/L | 16 mg/L | 16 mg/L | 64 mg/L | 16/32 |  | 16/32 | 8/16 | 4 mg/L | 16/32 | MIC Pseudomonas aeruginosa 9 ([4]; 9 (clinical strain)): 64 mg/L; MIC MRSA(ii) [9, 21]: 64 mg/L |
| RLKRMRKRLKRKLRLW-NH2 [SRP-17] |  | 32 mg/L | 16/64 | 64/128 | > 128 mg/L | 1 mg/L | 16 mg/L | > 128 mg/L |  |  |  |  |  | 32/64 | 32/64 | 16 mg/L | 16/32 | MIC Pseudomonas aeruginosa 8 [15, 18]: 64/128 |
